Source: US8293465B2, “Method for the detection of human immunodeficiency virus envelope (HIV) glycoprotein utilizing carbohydrate binding module (CBM) 20 or 21” (priority 2009, dated 2012)

B1: RoSBD: starch binding domain, CBM family 21, derived from Rhizopus oryzae glucoamylase, produced in E. coli (protein)
chain: ASIPSSASVQLDSYNYDGSTFSGKIYVKNIAYSKKVTVIYADGSDNWNNNGNTIAASYSAPISGSNYEYWTFSASINGIKEFYIKYEVSGKTYYDNNNSANYQVST

Key:
[1] = target: T1, RoSBD binding to HIV Ag & Ab positive panel (Rhizopus oryzae, UniProt P07683); assay: Competition of HIV-RoSBD binding, ELISA on RoSBD coated plate; settings: 10 mM competitor, FIG. 6A
T1 construct: made in house; host or cells: E. coli (pET23a)
Protocol: (§1) Ten millimolar maltoheptaose (G7 glycan) and β-cyclodextrin (βCD) (Sigma-Aldrich, St. Louis, Mo.) were dissolved in PBS plus 5% BSA and mixed with the same volume of HIV Ag & Ab positive panel at 37° C. for 1 hr. After adding the mixture to RoSBD coated plate (100 nM in 0.05 M Tris-Hcl, pH 8) or AnSBD coated plate (100 nM in 0.05 M sodium bicarbonate buffer, pH 9.5) at 37° C. for 1 hr, 100 μL HRP coupled HIV1 recombinant gp120 antigen conjugate (0.05 μg/mL) was used for detection.
(§2) HIV Ag & Ab positive panel was separately mixed with the same volume of 500 nM human IgG1 secondary antibody, 2G12 monoclonal antibody, and 250 nM HIV1 gp140 antigen at 37° C. for 1 hr. After adding the mixture to (a) RoSBD coated (100 nM in 0.05 M Tris-Hcl, pH 8) and (b) AnSBD coated plate (100 nM in 0.05 M sodium bicarbonate buffer, pH 9.5) individually at 37° C. for 1 hr, 100 μL HRP coupled HIV1 recombinant gp120 antigen conjugate (0.05 μg/mL) was used for detection.

[2] = target: T2, AnSBD binding to HIV Ag & Ab positive panel (Aspergillus niger, UniProt P69328); settings: 10 mM competitor; AnSBD coated plate; FIG. 6B
T2 construct: made in house; host or cells: E. coli (pET15b, printed 'pET15Bb')
Protocol: as §1, §2

[3] = Glycan array screening of RoSBD (CFG Core H, version 3.1); format: binding; settings: among 377 glycans; FIG. 1A
Protocol: RoSBD was produced in E. coli system using pET23a expression vector and purified using amylose resin as previously described. Glycan microarray analyses were conducted by the Consortium for Functional Glycomics, Core H facility. The array contained a total of 377 different natural and synthetic glycans and version 3.1 was used for the analyses reported here. Briefly, RoSBD was diluted to […] in sodium acetate binding buffer (50 mM sodium acetate pH 5.5, 1% BSA and 0.05% Tween-20). Seventy microliters was applied to the printed surface of the array, coverslipped, and incubated at room temperature in a humidified chamber away from light for 1 hr. After the incubation, the coverslip was removed and rinsed four times in TSM buffer [50 mM Tris-HCI (pH 7.5), 10 mM MgCl2, and 0.5 M sucrose] and four times in TSM buffer. Seventy microliters of Anti-RoSBD monoclonal antibody, diluted to 1:200 in PBS binding buffer, was applied to the printed surface of the microarray and incubated in a humidified chamber for 1 hr. Washes were performed as above. To detect binding, the secondary antibody incubation was performed with Alexa488-labeled goat anti-mouse IgG at […] in PBS buffer for one hour in a humidified chamber, followed by wash steps. The binding image was read in a Perkin-Elmer Microarray XL4000 scanner and analyzed using Imagene (V.6) image analysis software. […]

[4] = tested on: HIV Ag & Ab positive panel (possibly native HIV gp120 antigen glycoprotein); assay: HIV-RoSBD binding analysis, sandwich ELISA on SBD coated plates
Protocol: At first 100 μL of 100 nM AnSBD/RoSBD were coated on individual well of a 96-well plate (Greiner-Bio One GmbH, Frickenhausen, Germany) in sodium bicarbonate buffer (pH 9.5)/Tris-HCl buffer (pH 8) via 16-hr incubation at 4° C. The plate was washed with PBST [10 mM Phosphate Buffered Saline (pH 7.0) plus 0.05% Tween-20], then 200 μL blocking buffer [0.01 M Phosphate Buffered Saline (pH 7.0) plus 5% BSA] was added to each well and incubated at 37° C. for 2 hr. The blocking buffer was removed and the plate was dried at 25° C. for 1 hr. […] To test the specificity of the SBD binding to HIV, HCV test sample and HCV recombinant antigen (Core+NS3+NS5)-HRP conjugate (0.33 μg/mL) were analyzed following the same protocol in parallel. Finally, the plates were developed by adding 100 μL 3,3′,5,5′-tetramethylbenzidibe (TMB) at 37° C. for […] The absorbance was measured at 450 nm in ELISA reader after the reaction was stopped by addition of 100 μL 2 N H2SO4 in each well. These absorbance values were compiled as a statistical value (Cut off value; COV) and described in terms of cut off index (COI) value. The COV was calculated as the OD value of negative control (Normal Human Serum) plus 0.1 (COV=NC+0.1). The COI value was calculated as the OD value of test sample divided by COV. […]

| Molecule | competitive inhibition rate [1] | competitive inhibition rate [2] | glycan recognition (interaction signal on glycan array) [3] | specificity of binding, HIV panel versus Anti-HCV mixed titer performance panel ([4]; Anti-HCV panel PHV205-24 in parallel, P<0.0001, FIG. 4B) | maximal COI value of binding ([4]; HIV Ag & Ab positive panel #9144532, COI > 1 is positive, FIG. 4A) |
| --- | --- | --- | --- | --- | --- |
| OC[C@H]1O[C@@H]2O[C@H]3[C@H](O)[C@@H](O)[C@@H](O[C@H]4[C@H](O)[C@@H](O)[C@@H](O[C@H]5[C@H](O)[C@@H](O)[C@@H](O[C@H]6[C@H](O)[C@@H](O)[C@@H](O[C@H]7[C@H](O)[C@@H](O)[C@@H](O[C@H]8[C@H](O)[C@@H](O)[C@@H](O[C@H]1[C@H](O)[C@H]2O)O[C@@H]8CO)O[C@@H]7CO)O[C@@H]6CO)O[C@@H]5CO)O[C@@H]4CO)O[C@@H]3CO [β-cyclodextrin] | 23.1% | 14.3% | – | – | – |
| maltoheptaose | 24.4% | 45.9% | – | – | – |
| B1 | – | – | only Manα(1,2)Manα(1,2)Manα(1,2)Manα(1,3) (No. 187) showed evident interaction signal | specific | 2.298 |
